Results from patent US20260007599A1, “TICAGRELOR IV FORMULATIONS FOR USE IN THE TREATMENT OF GRAM-POSITIVE BACTEREMIA” (Hyloris Developments SA, priority 2023, published 2026).

Legend:
[1] = Clear aqueous solutions with ticagrelor-cyclodextrin inclusion complex (Table 17); type: physicochemical; details: using 20-40% w/w HPβCD
[2] = Maximum solubility of ticagrelor in HPβCD solution without heat; type: physicochemical; details: without the use of heat
Description: In a further example, the maximum solubility of ticagrelor in an HPβCD solution, without the use of heat, was investigated.

[3] = Physical stability and diluent tests of ticagrelor 5 mg/ml batches with varying HPβCD; type: physicochemical; details: for Appearance in 5% dextrose / Appearance in NaCl 0.9%: diluted to ticagrelor 0.1 mg/ml; for Appearance, undiluted: ticagrelor 5 mg/ml
Procedure: 5 mg/ml ticagrelor-cyclodextrin solutions with varying amounts of HPβCD were diluted with normal saline, 5% dextrose solution or Ringer's lactate solution. The stability was screened. The ticagrelor concentration when diluted into dextrose or saline was 0.1 mg/ml.

[4] = system: Staphylococcus agalactiae; details: ex-vivo; cited from earlier work
[5] = Impact of packaging material on stability, 40° C./75% RH; type: physicochemical; set-up: Assay: unit not given here; details: for Acetal impurity / Amine impurity / Assay / Description / Regiomer / Sum impurities >0.05 / Total (impurity) / Triol impurity / pH: HPβCD 32.5% w/w, 5 mM pH 7.5 phosphate buffer, 40° C./75% RH
Procedure: To study the potential impact of the packaging material on the stability of the ticagrelor-cyclodextrin inclusion complex, a composition with 32.5% w/w HPβCD was prepared with procedures and precaution's similar to previous trials; samples were stored in transparent clear glass vials and amber colored glass vials at a temperature of 40° C./75% RH.

[6] = pH, osmolality, assay and impurities of undiluted batches; impact of buffer strength; type: physicochemical
Procedure: From the results obtained in Example 4 it follows that the concentration of excipients may be such that the resulting ticagrelor solution is hypertonic. The osmolality and pH of several batches was checked. […] In addition, a screening was conducted on the impact of buffer strength on pH and osmolality.

[7] = Storage stability of Example 14 aqueous ticagrelor solutions; type: physicochemical; details: 5-15 mg/ml ticagrelor, 20-40% w/w HPβCD; 40° C. and 75% Relative Humidity
Procedure: Aqueous ticagrelor solutions for intravenous administration were prepared with the following composition: • 5-15 mg/ml Ticagrelor • 20-40% w/w HPβCD • Q·S to 1 ml Acetate or Phosphate Buffer pH 4.5 to 6.5 • pH solution: 6-8 • Osmolality solution: 350-900 mOsm/kg
Packaged in a glass vial, containing 5-15 ml aqueous ticagrelor solution.
Storage stability: at least 3 months at 40° C. and 75% Relative Humidity

[8] = system: Methicillin resistant Staphylococcus aureus (MRSA); details: ex-vivo; cited from earlier work
[9] = HPβCD 22.5% w/w, 19 mM phosphate buffer pH 7.5
[10] = HPβCD 25.0% w/w, 19 mM phosphate buffer pH 7.5
[11] = HPβCD 27.5% w/w, 19 mM phosphate buffer pH 7.5
[12] = HPβCD 30.0% w/w, 19 mM phosphate buffer pH 7.5
[13] = HPβCD 32.5% w/w, 19 mM phosphate buffer pH 7.5
[14] = phosphate buffer pH 7.5 strength 0.19 mM
[15] = phosphate buffer pH 7.5 strength 5 mM
[16] = phosphate buffer pH 7.5 strength 10 mM
[17] = phosphate buffer pH 7.5 strength 19 mM

With `CCCSc1nc(N[C@@H]2C[C@H]2c2ccc(F)c(F)c2)c2nnn([C@@H]3C[C@H](OCCO)[C@@H](O)[C@H]3O)c2n1` [ticagrelor, (1S,2S,3R,5S)-3-{7-[(1R,2S)-2-(3,4-difluorophenyl)cyclopropylamino]5-(propylthio)-3H-(1,2,3)triazolo (4,5-D)pyrimidin-3-yl}-5-(2 hydroxyethoxy) cyclopentane-1,2-diol] the “ticagrelor solution concentration achieved” value [1] was 5 −13 mg/ml, the “Ticagrelor (maximum solubility in HPβCD solution)” value ([2]; HPβCD 30% w/w) was 8 mg/mL and the “Ticagrelor (maximum solubility in HPβCD solution)” value ([2]; HPβCD 33% w/w) was 9 mg/mL. For the same compound, the “ticagrelor concentration that could be dissolved” value ([3]; HPβCD 20-40% w/w, without the use of heat) was 5 to 15 mg/mL, the “Appearance in 5% dextrose” value ([3]; HPβCD 22.5% w/w) was “Clear solution” and the “Appearance in NaCl 0.9%” value ([3]; HPβCD 22.5% w/w) was “Turbid”. The “Appearance in 5% dextrose” value ([3]; HPβCD 25.0% w/w) was “Clear solution”, the “Appearance in NaCl 0.9%” value ([3]; HPβCD 25.0% w/w) was “Turbid” and the “Appearance in 5% dextrose” value ([3]; HPβCD 27.5% w/w) was “Clear solution”. For the same compound, the “Appearance in NaCl 0.9%” value ([3]; HPβCD 27.5% w/w) was “Turbid”, the “Appearance in 5% dextrose” value ([3]; HPβCD 30.0% w/w) was “Clear solution” and the “Appearance in NaCl 0.9%” value ([3]; HPβCD 30.0% w/w) was “Turbid”. For the same compound, the “Appearance in 5% dextrose” value ([3]; HPβCD 32.5% w/w) was “Clear solution”, the “Appearance in NaCl 0.9%” value ([3]; HPβCD 32.5% w/w) was “Clear solution” and the “stability of undiluted concentrate” value ([3]; in the refrigerator, HPβCD concentration as low as 22.5% w/w) was “remained stable”. For the same compound, the “Appearance, undiluted” value ([3]; HPβCD 30.0% w/w) was “Clear solution”, the “Appearance, undiluted” value ([3]; HPβCD 32.5% w/w) was “Clear solution” and the minimal bactericidal concentration [4] was 40 microgram/ml. For the same compound, the “difference between clear and amber glass vials” value ([5]; accelerated storage stability test, after 3 months) was “no significant difference”, the “number of different impurities developed on storage” value ([5]; accelerated storage stability test, without the cyclodextrin) was 6 to 8 and the Acetal impurity ([5]; amber glass vials, 1 M) was 0.05%. The Amine impurity ([5]; amber glass vials, 1 M) was 0.04%, the Assay ([5]; amber glass vials, 1 M) was 100.24 and the Description ([5]; amber glass vials, 1 M) was “clear”. The Regiomer ([5]; amber glass vials, 1 M) was 0.01%, the “Sum impurities >0.05” value ([5]; amber glass vials, 1 M) was 0.05% and the “Total (impurity)” value ([5]; amber glass vials, 1 M) was 0.22%. The Triol impurity ([5]; amber glass vials, 1 M) was 0.02%, the pH ([5]; amber glass vials, 1 M) was 7.70 and the Acetal impurity ([5]; amber glass vials, 2 M) was 0.04%. For the same compound, the Amine impurity ([5]; amber glass vials, 2 M) was 0.04%, the Assay ([5]; amber glass vials, 2 M) was 99.89 and the Description ([5]; amber glass vials, 2 M) was “clear”. For the same compound, the Regiomer ([5]; amber glass vials, 2 M) was 0.02%, the “Sum impurities >0.05” value ([5]; amber glass vials, 2 M) was 0.00% and the “Total (impurity)” value ([5]; amber glass vials, 2 M) was 0.28%. The Triol impurity ([5]; amber glass vials, 2 M) was 0.04%, the pH ([5]; amber glass vials, 2 M) was 7.69 and the Acetal impurity ([5]; amber glass vials, 3 M) was 0.05%. For the same compound, the Amine impurity ([5]; amber glass vials, 3 M) was 0.06%, the Assay ([5]; amber glass vials, 3 M) was 98.93 and the Description ([5]; amber glass vials, 3 M) was “clear”. The Regiomer ([5]; amber glass vials, 3 M) was 0.04%, the “Sum impurities >0.05” value ([5]; amber glass vials, 3 M) was 0.16% and the “Total (impurity)” value ([5]; amber glass vials, 3 M) was 0.33%. The Triol impurity ([5]; amber glass vials, 3 M) was 0.05%, the pH ([5]; amber glass vials, 3 M) was 7.66 and the Acetal impurity ([5]; amber glass vials, T0) was 0.05%. For the same compound, the Amine impurity ([5]; amber glass vials, T0) was 0.04%, the Assay ([5]; amber glass vials, T0) was 98.34 and the Description ([5]; amber glass vials, T0) was “clear”. For the same compound, the Regiomer ([5]; amber glass vials, T0) was 0.00%, the “Sum impurities >0.05” value ([5]; amber glass vials, T0) was 0.18% and the “Total (impurity)” value ([5]; amber glass vials, T0) was 0.40%. It also gave a Triol impurity ([5]; amber glass vials, T0) of 0.04%, a pH ([5]; amber glass vials, T0) of 7.66 and an Acetal impurity ([5]; clear glass vials, 1 M) of 0.04%. For the same compound, the Amine impurity ([5]; clear glass vials, 1 M) was 0.04%, the Assay ([5]; clear glass vials, 1 M) was 101.71 and the Description ([5]; clear glass vials, 1 M) was “clear”. For the same compound, the Regiomer ([5]; clear glass vials, 1 M) was 0.01%, the “Sum impurities >0.05” value ([5]; clear glass vials, 1 M) was 0.00% and the “Total (impurity)” value ([5]; clear glass vials, 1 M) was 0.22%. The Triol impurity ([5]; clear glass vials, 1 M) was 0.03%, the pH ([5]; clear glass vials, 1 M) was 7.65 and the Acetal impurity ([5]; clear glass vials, 2 M) was 0.04%. The Amine impurity ([5]; clear glass vials, 2 M) was 0.04%, the Assay ([5]; clear glass vials, 2 M) was 99.69 and the Description ([5]; clear glass vials, 2 M) was “clear”. The Regiomer ([5]; clear glass vials, 2 M) was 0.02%, the “Sum impurities >0.05” value ([5]; clear glass vials, 2 M) was 0.05% and the “Total (impurity)” value ([5]; clear glass vials, 2 M) was 0.28%. The Triol impurity ([5]; clear glass vials, 2 M) was 0.05%, the pH ([5]; clear glass vials, 2 M) was 7.63 and the Acetal impurity ([5]; clear glass vials, 3 M) was 0.05%. For the same compound, the Amine impurity ([5]; clear glass vials, 3 M) was 0.06%, the Assay ([5]; clear glass vials, 3 M) was 98.25 and the Description ([5]; clear glass vials, 3 M) was “clear”. The Regiomer ([5]; clear glass vials, 3 M) was 0.04%, the “Sum impurities >0.05” value ([5]; clear glass vials, 3 M) was 0.16% and the “Total (impurity)” value ([5]; clear glass vials, 3 M) was 0.33%. For the same compound, the Triol impurity ([5]; clear glass vials, 3 M) was 0.05%, the pH ([5]; clear glass vials, 3 M) was 7.58 and the Acetal impurity ([5]; clear glass vials, T0) was 0.05%. The Amine impurity ([5]; clear glass vials, T0) was 0.04%, the Assay ([5]; clear glass vials, T0) was 98.34 and the Description ([5]; clear glass vials, T0) was “clear”. For the same compound, the Regiomer ([5]; clear glass vials, T0) was 0.00%, the “Sum impurities >0.05” value ([5]; clear glass vials, T0) was 0.22% and the “Total (impurity)” value ([5]; clear glass vials, T0) was 0.40%. It also gave a Triol impurity ([5]; clear glass vials, T0) of 0.05%, a pH ([5]; clear glass vials, T0) of 7.65 and an Assay [6, 9] of 98.15%. The Osmolality undiluted [6, 9] was 392 mOsm/kg, the Total impurities [6, 9] was 0.39% and the pH undiluted [6, 9] was 7.67. It also gave an Assay [6, 10] of 103.23%, an Osmolality undiluted [6, 10] of 493 mOsm/kg and a Total impurities [6, 10] of 0.41%. The pH undiluted [6, 10] was 7.69, the Assay [6, 11] was 104.27% and the Osmolality undiluted [6, 11] was 549 mOsm/kg. It also gave a Total impurities [6, 11] of 0.42%, a pH undiluted [6, 11] of 7.69 and an Assay [6, 12] of 107.64%. For the same compound, the Osmolality undiluted [6, 12] was 638 mOsm/kg, the Total impurities [6, 12] was 0.44% and the pH undiluted [6, 12] was 7.74. The Assay [6, 13] was 99.26%, the Osmolality undiluted [6, 13] was 813 mOsm/kg and the Total impurities [6, 13] was 0.41%. The pH undiluted [6, 13] was 7.68, the Assay [6, 14] was 102.23% and the Osmolality sample [6, 14] was 809 mOsm/kg. It also gave a Total impurities [6, 14] of 0.42%, a pH sample [6, 14] of 7.18 and an Assay [6, 15] of 100.49%. It also gave an Osmolality sample [6, 15] of 703 mOsm/kg, a Total impurities [6, 15] of 0.40% and a pH sample [6, 15] of 7.66. The Assay [6, 16] was 102.98%, the Osmolality sample [6, 16] was 724 mOsm/kg and the Total impurities [6, 16] was 0.42%. It also gave a pH sample [6, 16] of 7.69, an Assay [6, 17] of 102.58% and an Osmolality sample [6, 17] of 758 mOsm/kg. The Total impurities [6, 17] was 0.42%, the pH sample [6, 17] was 7.70 and the Storage stability [7] was “at least 3 months”. For the same compound, the minimal bactericidal concentration [8] was 20 microgram/ml.
